According to ChEMBL document CHEMBL3091439, “Further discovery of caffeic acid derivatives as novel influenza neuraminidase inhibitors” (Bioorg Med Chem, 2013):

Experiments:
Neuraminidase [1] = molecular target: T1, Neuraminidase (Influenza A virus, UniProt B4URF0); assay: Inhibition of influenza A virus A/duck/China/QJ/01(H5N1) neuraminidase using 4-MU-NANA as substrate incubated for 5 mins prior to substrate addition measured after 30 to 60 mins by fluorescence assay
Neuraminidase [2] = molecular target: T1, Neuraminidase; assay: Inhibition of Influenza A virus (A/Chicken/Shandong/LY/08(H9N2)) neuraminidase using 4-MU-NANA as substrate incubated for 5 mins prior to substrate addition measured after 30 to 60 mins by fluorescence assay; design: species or system Influenza A virus (A/chicken/Shandong/LY/2008(H9N2))
[3] = Cytotoxicity against chicken embryo fibroblasts infected with Influenza A virus (A/Chicken/Shandong/LY/08(H9N2)) preincubated for 1 hr followed by viral-infection measured after 2 days by MTS assay; format: cell-based, Gallus gallus, Fibroblast
Influenza A virus = assay: Antiviral activity against Influenza A virus (A/Chicken/Shandong/LY/08(H9N2)) infected in chicken embryo fibroblasts assessed as protection against virus-induced cytopathic effect preincubated for 1 hr followed by viral-infection measured after 2 days by MTS assay; format: functional, organism-based, Influenza A virus (A/chicken/Shandong/LY/2008(H9N2))
Neuraminidase [4] = molecular target: T1, Neuraminidase; assay: Non competitive inhibition of influenza A virus A/duck/China/QJ/01(H5N1) neuraminidase using 4-MU-NANA as substrate incubated for 5 mins prior to substrate addition measured after 30 to 60 mins by Lineweaver-Burk plot analysis
Neuraminidase [5] = molecular target: T1, Neuraminidase; assay: Non competitive inhibition of Influenza A virus (A/Chicken/Shandong/LY/08(H9N2)) neuraminidase using 4-MU-NANA as substrate incubated for 5 mins prior to substrate addition measured after 30 to 60 mins by Lineweaver-Burk plot analysis; design: species or system Influenza A virus (A/chicken/Shandong/LY/2008(H9N2))

SMILES	IC50 (Neuraminidase [1]) [µM]	IC50 (Neuraminidase [2]) [µM]	CC50 at 48 h [3] [µM]	EC50 (Influenza A virus) [µM]	Ki (Neuraminidase [4]) [µM]	Ki (Neuraminidase [5]) [µM]
CCC(CC)C(=O)Nc1cc(NC(C)=O)c(NC(=N)N)cc1OCC(=O)O	75.8	69.1				
CCC(CC)C(=O)Nc1cc(N)ccc1OCC(=O)O		> 100				
CCC(CC)C(=O)Nc1cc(NC(=O)[C@H](Cc2ccccc2)NC(=O)/C=C/c2ccc(O)c(O)c2)ccc1OCC(=O)O	16.2	9.8	68.3			
CCC(CC)C(=O)Nc1cc(NS(=O)(=O)c2ccc(C)cc2)ccc1OCC(=O)O	86.7	78.6				
CCC(CC)C(=O)Nc1cc(NC(=O)[C@H](CC(C)C)NC(=O)/C=C/c2ccc(O)c(O)c2)ccc1OCC(=O)O	14	8.5	89.7	13.5		
CCC(CC)CN(C(=O)/C=C/c1ccc(O)c(O)c1)c1ccc(OCC(=O)O)c(NC(=O)C(CC)CC)c1	11.3	25.2	> 100	56.4		
CCC(CC)C(=O)Nc1cc(NC(C)=O)c(N)cc1OCC(=O)O	58.5	46.4				
C#CCNC(=O)Nc1ccc(OCC(=O)O)c(NC(=O)C(CC)CC)c1		89.8				
CCC(CC)C(=O)Nc1cc(NC(=N)N)ccc1OCC(=O)O		> 100				
CCC(CC)C(=O)Nc1cc(NC(=O)[C@H](C)NC(=O)/C=C/c2ccc(O)c(O)c2)ccc1OCC(=O)O	16.1	7.9	> 100	25.4	9.5	
CCC(CC)C(=O)Nc1ccc(OCC(=O)O)c(NC(=O)C(CC)CC)c1		> 100				
CCC(CC)C(=O)Nc1cc(N(Cc2cccs2)C(=O)/C=C/c2ccc(O)c(O)c2)ccc1OCC(=O)O	16.4	24.1	87.6			
CCC(CC)C(=O)Nc1cc(N(Cc2ccccc2)C(=O)/C=C/c2ccc(O)c(O)c2)ccc1OCC(=O)O	11.4	16	78.2		32.5	
CCC(CC)C(=O)Nc1cc(NC(=O)N[C@H](CC)CO)ccc1OCC(=O)O		> 100				
CCC(CC)C(=O)Nc1cc(NC(C)=O)c(NC(=O)CCc2ccc(O)c(O)c2)cc1OCC(=O)O	42.7	15.8	47.2			
CCC(CC)C(=O)Nc1cc(NC(=O)c2ccco2)ccc1OCC(=O)O		> 100				
CCC(CC)C(=O)Nc1cc(NC(=O)NCc2ccccc2)ccc1OCC(=O)O	55.6	49.7				
CCC(CC)C(=O)Nc1cc(NC(=O)[C@@H](NC(=O)/C=C/c2ccc(O)c(O)c2)C(C)C)ccc1OCC(=O)O	16.6	9.4	70.4	22.9		
CCC(CC)C(=O)Nc1cc(NC(=O)C(C)C)c(NC(=O)CCc2ccc(O)c(O)c2)cc1OCC(=O)O	38.2	14.2				
CCC(CC)C(=O)Nc1cc(NC(C)=O)c(NC(=O)/C=C/c2ccc(O)c(O)c2)cc1OCC(=O)O	10.7	3.2	> 100	13.8		2.7
CCC(CC)C(=O)Nc1cc(NC(=O)CNC(=O)/C=C/c2ccc(O)c(O)c2)ccc1OCC(=O)O	17.6	9.2	> 100	33.6		
CCC(CC)C(=O)Nc1cc(NC(=O)C(C)C)c(NC(=O)/C=C/c2ccc(O)c(O)c2)cc1OCC(=O)O	14.2	5.8	> 100	14.5		
CCC(CC)C(=O)Nc1cc(NC(=O)C(C)C)c(NC(=N)N)cc1OCC(=O)O		83.2				
CCC(CC)C(=O)Nc1cc(NC(=O)C(C)C)c(N)cc1OCC(=O)O	61.2	54.3				
